In brackets after ≈: the same amount, converted by molar mass.

In PMC7497412 (RSC Advances, 2020) one finds MIC data, which are given here for four molecules.

Holding throughout (experiment): microbe, parasite or virus in culture
Holding throughout (assay type): cell-based

One experiment deals with M. tb V2475/MDR. Conditions: Mycobacterium tuberculosis, read-out: M. tb MIC V2475/MDR.
The next experiment deals with M. tb KZN494/MDR. Conditions: Mycobacterium tuberculosis, read-out: M. tb MIC KZN494/MDR.
The subject of another experiment is M. tb R506/XDR. Conditions: Mycobacterium tuberculosis, read-out: M. tb MIC R506/XDR.
The next experiment has as its system M. tb TF274/XDR. Conditions: Mycobacterium tuberculosis, read-out: M. tb MIC TF274/XDR.

Regarding `O=C(NC12CC3CC(CC(C3)C1)C2)c1cc(=O)c2c(Br)cccc2[nH]1` [8i, N-(1-Adamantanyl)-5-bromo-4-oxo-1,4-dihydroquinoline-2-carboxamide], the MIC with M. tb V2475/MDR is 9.97 µM (≈ 4 µg/mL); in the experiment on M. tb KZN494/MDR it was 9.97 µM (≈ 4 µg/mL); in the experiment with M. tb R506/XDR, 4.98 µM (≈ 2 µg/mL); in the experiment on M. tb TF274/XDR, 4.98 µM (≈ 2 µg/mL).
In the case of `O=C(NC1CCCCCCC1)c1ccc2ccccc2c1` [13c, N-Cyclooctyl-2-naphthamide], the MIC with M. tb V2475/MDR was determined as 7.11 µM (≈ 2 µg/mL); in the experiment on M. tb KZN494/MDR it was 7.11 µM (≈ 2 µg/mL); in the experiment with M. tb R506/XDR it was 3.55 µM (≈ 0.999 µg/mL); in the experiment with M. tb TF274/XDR, 3.55 µM (≈ 0.999 µg/mL).
With `O=C(NC12CC3CC(CC(C3)C1)C2)c1ccc2ccccc2c1` [13d, N-(1-Adamantanyl)-2-naphthamide], the MIC was 6.55 µM (≈ 2 µg/mL) in the experiment with M. tb V2475/MDR, 6.55 to 13.1 µM (≈ 2 to 4 µg/mL) in the experiment with M. tb KZN494/MDR, 3.27 µM (≈ 0.999 µg/mL) in the experiment with M. tb R506/XDR and 3.27 µM (≈ 0.999 µg/mL) with M. tb TF274/XDR.
In the case of `O=C(Nc1nc(-c2ccc(Cl)cc2Cl)cs1)C12CC3CC(CC(C3)C1)C2` [18b, N-(4-(2,4-Dichlorophenyl)thiazol-2-yl)adamantane-1-carboxamide], the MIC with M. tb V2475/MDR is 19.6 µM (≈ 8 µg/mL); in the experiment with M. tb KZN494/MDR it was 9.82 µM (≈ 4 µg/mL); in the experiment with M. tb R506/XDR it was 4.91 to 9.82 µM (≈ 2 to 4 µg/mL); in the experiment on M. tb TF274/XDR, 4.91 µM (≈ 2 µg/mL).
